Experimental data taken from PMC10223987 (Viruses, 2023).
Where a name gives a salt, the structure may show the parent alone. Read-outs that look alike come from different tables or passages of the source.

Assays:
VeroE6-TMPRSS2 cells = assay: Cell toxicity assay (Celltiter-Glo); format: cell-based; conditions: 24 h, read-out: Cell Viability Inhibition IC50
SARS-CoV-2 pseudovirus = assay: microbe, parasite or virus in culture; format: cell-based; conditions: Severe acute respiratory syndrome-related coronavirus; for inhibition at 100 µM: VeroE6/TMPRSS2, read-out: SARS-CoV-2 Pseudovirus % Inhibition; for IC50: VeroE6/TMPRSS2, read-out: SARS-CoV-2 Pseudovirus IC50
TMPRSS2 = TMPRSS2 (Homo sapiens, UniProt O15393); assay: TMPRSS2 enzyme inhibition assay (fluorescence-quenched peptide substrate); format: biochemical; conditions: enzymatic assay
Chain of TMPRSS2 (O15393 whole entry): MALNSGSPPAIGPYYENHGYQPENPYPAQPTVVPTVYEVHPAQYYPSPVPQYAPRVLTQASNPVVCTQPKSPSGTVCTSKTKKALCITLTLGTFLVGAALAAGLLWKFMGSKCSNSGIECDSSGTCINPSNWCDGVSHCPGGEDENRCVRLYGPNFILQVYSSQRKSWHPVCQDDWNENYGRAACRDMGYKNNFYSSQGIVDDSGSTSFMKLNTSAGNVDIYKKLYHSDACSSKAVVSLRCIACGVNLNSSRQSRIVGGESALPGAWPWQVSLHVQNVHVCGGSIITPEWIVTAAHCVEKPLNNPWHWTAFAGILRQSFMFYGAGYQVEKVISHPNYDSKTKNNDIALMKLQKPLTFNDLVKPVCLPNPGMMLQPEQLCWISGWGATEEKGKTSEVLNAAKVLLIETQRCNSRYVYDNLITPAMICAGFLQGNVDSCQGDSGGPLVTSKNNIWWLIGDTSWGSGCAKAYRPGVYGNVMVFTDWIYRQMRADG

factor Xa = factor Xa (Homo sapiens, UniProt P00742); assay: Factor Xa enzyme inhibition assay; format: biochemical
Chain of factor Xa (P00742 235-488 limits assumed): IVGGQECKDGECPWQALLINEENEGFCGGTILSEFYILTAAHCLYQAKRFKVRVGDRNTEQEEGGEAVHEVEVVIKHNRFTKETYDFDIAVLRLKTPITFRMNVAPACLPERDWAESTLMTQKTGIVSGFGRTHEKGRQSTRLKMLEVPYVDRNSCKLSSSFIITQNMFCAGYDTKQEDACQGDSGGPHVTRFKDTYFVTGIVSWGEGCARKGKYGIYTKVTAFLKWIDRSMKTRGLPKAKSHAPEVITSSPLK
Chain of factor Xa (P00742 41-179 partner limits assumed): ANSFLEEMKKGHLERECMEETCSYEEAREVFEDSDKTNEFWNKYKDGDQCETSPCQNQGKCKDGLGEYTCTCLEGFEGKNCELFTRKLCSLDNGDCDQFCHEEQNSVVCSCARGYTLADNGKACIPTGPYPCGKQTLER

thrombin = thrombin (Homo sapiens, UniProt P00734); assay: Thrombin enzyme inhibition assay; format: biochemical
[1] = test system: ACE2/TMPRSS2-dependant SARS-CoV-2 S protein-mediated membrane fusion; assay: microbe, parasite or virus in culture; format: cell-based
[2] = test system: DSP1-7 and DSP8-11 co-expressing 293FT cells; assay: cells; format: cell-based; conditions: TMPRSS2-independent / DSP reassociation control; read-out: CoTF Assay IC50
[3] = cited from earlier work
[4] = Severe acute respiratory syndrome coronavirus 2, read-out: S2TA Assay IC50

Which IC50 (VeroE6-TMPRSS2 cells) does the source give for N=C(N)c1ccc(OCCCCCOc2ccc(C(=N)N)cc2)cc1 [Pentamidine, pentamidine, reference compound] here?
The IC50 was over 100 µM.

What about the inhibition at 100 µM (SARS-CoV-2 pseudovirus) of the same compound?
The inhibition at 100 µM was 69.5%.

And the IC50 (SARS-CoV-2 pseudovirus)?
The IC50 was 45 µM.

What about the IC50 (TMPRSS2) of the same compound?
Its IC50 is 3.98 µM.

And the IC50 (factor Xa)?
Its IC50 is 6.22 µM.

And the IC50 (thrombin)?
Its IC50 is 1510 nM.

What about the IC50 [1, 4] of the same compound?
The IC50 was 32.3 µM.

And the IC50 [2]?
The IC50 was over 100 µM.

With CC(C)NC(=N)c1ccc2nc(-c3cccc(-c4nc5ccc(C(=N)NC(C)C)cc5[nH]4)n3)[nH]c2c1 [Compound 11] as the compound, how does the IC50 (VeroE6-TMPRSS2 cells) read?
Its IC50 is over 100 µM.

What about the inhibition at 100 µM (SARS-CoV-2 pseudovirus) of the same compound?
The inhibition at 100 µM was 27%.

And the IC50 (SARS-CoV-2 pseudovirus)?
Its IC50 is over 100 µM.

What about the IC50 (TMPRSS2) of the same compound?
Its IC50 is over 10 µM.

And the IC50 (factor Xa)?
Its IC50 is over 1 µM.

And the IC50 (thrombin)?
The IC50 was over 1000 nM.

What about the IC50 [1, 4] of the same compound?
The IC50 was over 100 µM.

What about the IC50 [2] of the same compound?
Its IC50 is over 100 µM.

With N=C(N)c1ccc2nc(-c3cccc(-c4nc5ccc(C(=N)N)cc5[nH]4)c3)[nH]c2c1 [Compound 12] as the compound, how does the IC50 (VeroE6-TMPRSS2 cells) read?
Its IC50 is over 100 µM.

And the inhibition at 100 µM (SARS-CoV-2 pseudovirus)?
Its inhibition at 100 µM is 17.1%.

And the IC50 (SARS-CoV-2 pseudovirus)?
The IC50 was over 100 µM.

And the IC50 (TMPRSS2)?
The IC50 was 4.89 µM.

What about the IC50 (factor Xa) of the same compound?
Its IC50 is 34.1 µM.

What about the IC50 (thrombin) of the same compound?
The IC50 was 862 nM.

What about the IC50 [1, 4] of the same compound?
Its IC50 is over 100 µM.

And the IC50 [2]?
The IC50 was over 100 µM.

Which results are given for N=C(N)c1ccc(-c2ccc(-c3ccc(C(=N)N)cc3)o2)cc1 [Compound 7]?
IC50 (VeroE6-TMPRSS2 cells): > 100 µM; inhibition at 100 µM (SARS-CoV-2 pseudovirus): 2.66%; IC50 (SARS-CoV-2 pseudovirus): > 100 µM; IC50 (TMPRSS2): 82.7 µM; IC50 (factor Xa): 30.9 µM; fold less potential factor Xa inhibitor relative to pentamidine (factor Xa; relative to pentamidine): 5 fold; IC50 (thrombin): 79100 nM; IC50 [1, 4]: > 100 µM; IC50 [2]: > 100 µM

For N=C(N)c1ccc2nc(-c3ccc(-c4cccc(-c5ccc(-c6nc7ccc(C(=N)N)cc7[nH]6)cc5)n4)cc3)[nH]c2c1 [Compound 13], which IC50 (VeroE6-TMPRSS2 cells) is on record?
Its IC50 is over 100 µM.

And the inhibition at 100 µM (SARS-CoV-2 pseudovirus)?
The inhibition at 100 µM was 20.5%.

What about the IC50 (SARS-CoV-2 pseudovirus) of the same compound?
The IC50 was over 100 µM.

And the IC50 (TMPRSS2)?
The IC50 was 72.4 µM.

And the IC50 (factor Xa)?
The IC50 was 4.89 µM.

And the IC50 (thrombin)?
Its IC50 is 929 nM.

And the IC50 [1, 4]?
Its IC50 is 13.7 µM.

And the IC50 [2]?
The IC50 was 37 µM.

With CC(C)NC(=N)c1ccc2nc(-c3ccc(-c4cccc(-c5ccc(-c6nc7ccc(C(=N)NC(C)C)cc7[nH]6)cc5)n4)cc3)[nH]c2c1 [Compound 14] as the compound, how does the IC50 (VeroE6-TMPRSS2 cells) read?
Its IC50 is over 100 µM.

What about the inhibition at 100 µM (SARS-CoV-2 pseudovirus) of the same compound?
The inhibition at 100 µM was 77.4%.

And the IC50 (SARS-CoV-2 pseudovirus)?
The IC50 was 83.7 µM.

And the IC50 (TMPRSS2)?
The IC50 was over 100 µM.

What about the IC50 (factor Xa) of the same compound?
The IC50 was over 10 µM.

And the IC50 (thrombin)?
Its IC50 is 2250 nM.

And the IC50 [1, 4]?
The IC50 was 16.9 µM.

And the IC50 ([1]; read-out: S2TA Assay IC50)?
Its IC50 is 10.9 µM.

What about the IC50 [2] of the same compound?
Its IC50 is 31 µM.

With CN(C)C(=O)COC(=O)Cc1ccc(OC(=O)c2ccc(NC(=N)N)cc2)cc1 [camostat] as the compound, how does the plasma half-life [3] read?
The plasma half-life was 23.1 min.

With N=C(N)c1ccc2cc(OC(=O)c3ccc(N=C(N)N)cc3)ccc2c1 [Nafamostat, nafamostat, reference compound] as the compound, how does the IC50 (factor Xa) read?
The IC50 was 1.74 µM.

What about the IC50 (thrombin) of the same compound?
Its IC50 is 34.1 nM.

What about the plasma half-life [3] of the same compound?
The plasma half-life was “less than 1 min”.

For N=C(N)c1ccc2nc(-c3cccc(-c4nc5ccc(C(=N)N)cc5[nH]4)n3)[nH]c2c1 [Compound 10], which IC50 (factor Xa) is on record?
Its IC50 is 5.93 µM.

And the IC50 (thrombin)?
Its IC50 is 921 nM.

And the IC50 [2]?
Its IC50 is 37.8 µM.

With N=C(N)c1ccc2nc(-c3cccc(-c4nc5ccc(C(=N)N)cc5[nH]4)n3)[nH]c2c1 (as salt: HCl) [Compound 10] as the compound, how does the melting point read?
The melting point was over 300 °C.
